Several values for one entry are separate records, joined by “and”; a condition that tells them apart may be missing. Identical values can stand only once.
Test: xn = mol fraction of the nth substance listed

Cc1ccccc1C + COCCO
viscosity [mPa·s], 101 kPa
Conditions	298.15 K	308.15 K
x2 = 0.0517	0.769	0.666
x2 = 0.1491	0.795	0.686
x2 = 0.2491	0.83	0.714
x2 = 0.3509	0.877	0.749
x2 = 0.4485	0.934	0.79
x2 = 0.4919	0.963	0.811
x2 = 0.5537	1.009	0.845
x2 = 0.6432	1.088	0.901
x2 = 0.7525	1.206	0.983
x2 = 0.8492	1.334	1.07
x2 = 0.9547	1.506	1.185

OCCOCCOCCO + COCCO
viscosity [mPa·s], 101 kPa
Conditions	293.15 K	298.15 K	303.15 K
x2 = 0.0555	35.94	30.26	26.08
x2 = 0.1005	32.08	27.25	23.69
x2 = 0.1526	27.98	24.06	21.13
x2 = 0.201	24.53	21.36	18.93
x2 = 0.2544	21.12	18.65	16.69
x2 = 0.3016	18.45	16.49	14.87
x2 = 0.3421	16.37	14.79	13.44
x2 = 0.4006	13.74	12.58	11.54
x2 = 0.4493	11.83	10.95	10.13
x2 = 0.4936	10.3	9.622	8.98
x2 = 0.5499	8.592	8.124	7.664
x2 = 0.6007	7.271	6.95	6.621
x2 = 0.6501	6.157	5.943	5.714
x2 = 0.7042	5.105	4.973	4.825
x2 = 0.7531	4.289	4.207	4.115
x2 = 0.7931	3.714	3.65	3.584
x2 = 0.8455	3.061	2.991	2.954
x2 = 0.9009	2.487	2.385	2.346
x2 = 0.95	2.069	1.924	1.856

Cl[Si](Cl)(Cl)Cl + COCOC
303.1 K, 101 kPa
Conditions	viscosity [mPa·s]
x2 = 0.0989	0.419
x2 = 0.1906	0.412
x2 = 0.2879	0.402
x2 = 0.3682	0.405
x2 = 0.3933	0.41
x2 = 0.4424	0.414
x2 = 0.5106	0.428
x2 = 0.596	0.458
x2 = 0.6589	0.472
x2 = 0.7083	0.461
x2 = 0.7984	0.434
x2 = 0.8477	0.414
x2 = 0.9026	0.369

CCC#N + CS(C)=O
viscosity [mPa·s]
Conditions	298.15 K	303.15 K	308.15 K	313.15 K	318.15 K	323.15 K
101 kPa, x2 = 0.1078	0.49	0.47	0.44	0.43	0.4	0.35
101 kPa, x2 = 0.2092	0.56	0.54	0.51	0.48	0.46	0.4
101 kPa, x2 = 0.3026	0.63	0.6	0.57	0.55	0.52	0.45
101 kPa, x2 = 0.3983	0.72	0.69	0.65	0.62	0.6	0.51
101 kPa, x2 = 0.4995	0.85	0.81	0.75	0.71	0.68	0.58
101 kPa, x2 = 0.6026	1.01	0.96	0.89	0.84	0.79	0.68
101 kPa, x2 = 0.7077	1.2	1.12	1.04	0.98	0.92	0.78
101 kPa, x2 = 0.7966	1.39	1.29	1.2	1.1	1.05	0.89
101 kPa, x2 = 0.9014	1.67	1.54	1.4	1.31	1.23	1.03
101.33 kPa, x1 = 0.1009	–	1.547	–	–	–	–
101.33 kPa, x1 = 0.202	–	1.322	–	–	–	–
101.33 kPa, x1 = 0.3031	–	1.12	–	–	–	–
101.33 kPa, x1 = 0.4043	–	0.9436	–	–	–	–
101.33 kPa, x1 = 0.499	–	0.8012	–	–	–	–
101.33 kPa, x1 = 0.6002	–	0.6745	–	–	–	–
101.33 kPa, x1 = 0.7153	–	0.5619	–	–	–	–
101.33 kPa, x1 = 0.798	–	0.4937	–	–	–	–
101.33 kPa, x1 = 0.8994	–	0.4328	–	–	–	–

CCCCCCCCCCO + CS(C)=O
313 K, 101 kPa
Conditions	viscosity [mPa·s]
x2 = 0.0732	5.748
x2 = 0.2168	4.662
x2 = 0.3082	4.127
x2 = 0.3986	3.711
x2 = 0.5096	3.248
x2 = 0.5918	2.964
x2 = 0.6951	2.596
x2 = 0.8064	2.203
x2 = 0.9009	1.838

CCOC(=O)OCC + CS(C)=O
308.15 K, 101 kPa
Conditions	viscosity [mPa·s]
x2 = 0.0902	0.7
x2 = 0.1358	0.719
x2 = 0.2655	0.789
x2 = 0.3678	0.836
x2 = 0.468	0.928
x2 = 0.5579	1.006
x2 = 0.6013	1.047
x2 = 0.6456	1.093
x2 = 0.7167	1.172
x2 = 0.7783	1.249
x2 = 0.8439	1.344
x2 = 0.9239	1.487

NC(N)=O + C[N+](C)(C)CCO.[Cl-]
viscosity
Conditions	100 kPa	101 kPa
293.15 K, x2 = 0.326	1696 mPa·s	–
298.15 K, x2 = 0.33	952.7 mPa·s	–
298.15 K, x2 = 0.333	750 mPa·s and 1264 mPa·s	859.5 mPa·s
298.15 K, x2 = 0.3333	–	748.1 mPa·s
303 K, x2 = 0.3333	–	427.4 mPa·s
303.15 K, x1 = 0.7	–	893 mPa·s
303.15 K, x2 = 0.326	635.5 mPa·s	–
303.15 K, x2 = 0.33	628.9 mPa·s	536.9 mPa·s
303.15 K, x2 = 0.333	562.7 mPa·s	–
303.15 K, x2 = 0.3333	–	511.6 mPa·s
308 K, x2 = 0.333	–	402.8 mPa·s
308 K, x2 = 0.3333	–	310.5 mPa·s
308.15 K, x2 = 0.326	414.6 mPa·s	–
308.15 K, x2 = 0.33	421.9 mPa·s	–
308.15 K, x2 = 0.333	–	348.2 mPa·s
308.15 K, x2 = 0.3333	–	351.5 mPa·s
313 K, x2 = 0.333	–	228 mPa·s
313 K, x2 = 0.3333	–	225.8 mPa·s
313.15 K, x2 = 0.326	280.7 mPa·s	–
313.15 K, x2 = 0.33	314 mPa·s	242.5 mPa·s
313.15 K, x2 = 0.333	296.3 mPa·s	–
313.15 K, x2 = 0.3333	–	243 mPa·s
318 K, x2 = 0.3333	–	163.3 mPa·s
318.15 K, x2 = 0.326	196.4 mPa·s	–
318.15 K, x2 = 0.33	224.4 mPa·s	–
318.15 K, x2 = 0.333	244.7 mPa·s	175.1 mPa·s
318.15 K, x2 = 0.3333	–	169.6 mPa·s
323 K, x2 = 0.333	–	105.6 mPa·s
323 K, x2 = 0.3333	–	121 mPa·s
323.15 K, x1 = 0.7	–	197 mPa·s
323.15 K, x2 = 0.326	142 mPa·s	–
323.15 K, x2 = 0.33	161.2 mPa·s	–
323.15 K, x2 = 0.333	171.5 mPa·s and 198.4 mPa·s	–

OCCOCCOCCO + C[N+](C)(C)CCO.[Cl-]
Conditions	viscosity [mPa·s]
298.15 K, 101 kPa, x2 = 0.25	72.3

Source: the CheMixHub viscosity set
